What was measured:
[1] = cited from earlier work
[2] = target: T1, dihydropyrimidine dehydrogenase (DPYD) (Homo sapiens, UniProt Q12882); conditions: cited from earlier work
T1 construct: degraded in the liver by dihydropyrimidine dehydrogenase (DPYD); host or cells: liver (in vivo, endogenous enzyme)
T1 sequence (Q12882 4-1025): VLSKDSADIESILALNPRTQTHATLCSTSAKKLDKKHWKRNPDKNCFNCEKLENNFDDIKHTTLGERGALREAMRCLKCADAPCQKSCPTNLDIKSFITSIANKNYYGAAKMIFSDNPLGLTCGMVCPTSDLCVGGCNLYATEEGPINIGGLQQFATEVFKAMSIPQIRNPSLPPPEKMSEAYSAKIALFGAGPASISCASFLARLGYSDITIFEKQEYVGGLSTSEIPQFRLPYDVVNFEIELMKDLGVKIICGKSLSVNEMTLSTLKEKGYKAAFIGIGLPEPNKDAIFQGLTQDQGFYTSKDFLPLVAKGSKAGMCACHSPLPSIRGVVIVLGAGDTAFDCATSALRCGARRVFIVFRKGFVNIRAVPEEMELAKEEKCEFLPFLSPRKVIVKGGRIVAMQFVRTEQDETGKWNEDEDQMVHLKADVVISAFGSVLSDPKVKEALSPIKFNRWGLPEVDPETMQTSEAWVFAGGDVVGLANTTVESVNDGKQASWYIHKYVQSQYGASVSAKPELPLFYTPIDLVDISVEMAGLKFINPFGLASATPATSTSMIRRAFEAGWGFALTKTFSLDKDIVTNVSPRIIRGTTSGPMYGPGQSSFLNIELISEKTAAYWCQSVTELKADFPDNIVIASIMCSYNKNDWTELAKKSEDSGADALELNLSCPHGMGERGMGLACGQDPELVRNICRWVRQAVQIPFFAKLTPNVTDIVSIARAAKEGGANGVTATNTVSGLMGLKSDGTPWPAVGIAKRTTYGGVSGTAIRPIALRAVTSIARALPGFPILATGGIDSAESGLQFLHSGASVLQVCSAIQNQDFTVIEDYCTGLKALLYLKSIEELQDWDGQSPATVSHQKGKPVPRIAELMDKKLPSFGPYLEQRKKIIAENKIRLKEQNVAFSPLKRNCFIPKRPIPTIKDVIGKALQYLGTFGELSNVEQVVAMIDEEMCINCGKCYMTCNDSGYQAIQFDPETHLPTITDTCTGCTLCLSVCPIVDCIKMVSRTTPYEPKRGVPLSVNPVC

[3] = QUASAR2 trial: adverse events graded after each treatment cycle with NCI CTCAE version 3.0; format: in vivo, human
Protocol: The QUASAR2 study (http://www.octo-oxford.org.uk/alltrials/infollowup/q2.html; http://www.controlled-trials.com/ISRCTN45133151/) is a phase III randomised controlled trial of capecitabine (Xeloda) (1250 mg/m2 twice daily d1-14 every 3 weeks, total of 8 cycles)+/−bevacizumab (7.5 mg/kg every three weeks) following resection of stage II/III CRC. Patients were entered into the study between July 2005 and December 2011 at 123 UK and 81 non-UK sites. Of 1119 patients with blood collected as of July 2010, 1046 were selected for study based on availability of clinical data and informed consent.
Adverse events were graded following each treatment cycle using the NCI Common Toxicity Criteria for Adverse Events (CTCAE) version 3.0. Common capecitabine-induced toxicities—diarrhoea, nausea and vomiting, mucositis/stomatitis, neutropaenia, thrombocytopaenia, and HFS—were analysed individually and also in combination as “global” toxicity. Adverse events were categorised as low (CTCAE grade 0/1/2) and high (CTCAE grade 3/4/5 at any treatment cycle). Hypertension and proteinuria were clearly related to bevacizumab (˜10-fold higher incidence) and were not included in the analysis.
Genome wide SNP genotypes and per treatment cycle toxicity data was available for 930 patients with stage II and III colorectal cancer treated with capecitabine in the QUASAR2 trial. […] Genotype data was imputed using IMPUTE2 and the UK10K and 1000 genomes merged reference panels. Common Terminology Criteria for Adverse Events (CTCAE) v3.0 was used to grade toxicity events. Patients with ≥grade 3 toxicities in the first two treatment cycles and across all cycles were coded as cases for analysis. Binary coded variables were generated for capecitabine-induced toxicities: diarrhoea, haematological, hand-foot syndrome, mucositis and vomiting. The mucositis toxicity variable captured cases with mucositis and/or stomatitis and haematological toxicity consisted of neutropenia and/or thrombocytopenia cases. A global toxicity phenotype was also analysed with cases having any grade 3 event of one of the aforementioned toxicities. The study was powered at 80% to detect variants with MAF>10% having effect sizes≥2. Association testing was performed using SNPTEST v2.5. The two QUASAR2 trial arms (capecitabine alone and capecitabine plus bevacizumab) were analysed separately and then meta-analysed using META v1.7. […] Gene annotation of the outputs was performed using Variant Effect Predictor (VEP) and ANNOVAR to determine the impact of each variant and distance to the nearest gene. Top independent SNPs were identified from multi-SNP-based conditional and joint association (COJO) analysis using Genome-wide Complex Trait Analysis (GCTA). V1.93.2. Receiver operator curve (ROC) analysis was performed in statistical software R.

[4] = early onset, Cycles 1 & 2 (n = 930), QUASAR 2

Molecule: O=c1[nH]cc(F)c(=O)[nH]1 [5-FU, 5-fluorouracil]
- mortality (Grade 5, CTCAE version 3.0) associated with use ([1]; overall): 0.5-1.0%
- patients who suffer substantial toxicities (Grade 3 or above, CTCAE version 3.0) ([1]; patients administered 5-FU-based therapy): 10-30%
- fatality rate ([1]; patients with colorectal cancer, serious toxicities from 5-FU): approximately 1%
- share of patients who experienced serious (CTCAE≥grade 3) toxicities ([1]; patients with colorectal cancer): Approximately a third
- share of drug degraded in the liver by DPYD prior to activation [2]: ~80%

Molecule: CCCCCOC(=O)Nc1nc(=O)n(C2OC(C)C(O)C2O)cc1F (centres unmarked) [capecitabine, pentyl [1-(3,4-dihydroxy-5-methyltetrahydrofuran-2-yl)-5-fluoro-2-oxo-1H-pyrimidin-4-yl]carbamate]
- share of patients who suffer dose-limiting levels of drug-induced adverse events ([1]; capecitabine patients): approximately one third
- mortality from rapid onset of toxicity relative to infusional and bolus 5-FU regimens (0.5% to 2%) ([1]; capecitabine schedules): about half that number
- Diarrhoea, Grade 0-2 (%) [3, 4]: 92.9%
- Diarrhoea, Grade 3-4 (%) [3, 4]: 6.9%
- Global toxicity, Grade 0-2 (%) [3, 4]: 84.6%
- Global toxicity, Grade 3-4 (%) [3, 4]: 15.3%
- Haematological toxicity, Grade 0-2 (%) [3, 4]: 98.4%
- Haematological toxicity, Grade 3-4 (%) [3, 4]: 1.3%
- Hand-foot syndrome, Grade 0-2 (%) [3, 4]: 91.4%
- Hand-foot syndrome, Grade 3-4 (%) [3, 4]: 8.3%
- Mucositis, Grade 0-2 (%) [3, 4]: 98.7%
- Mucositis, Grade 3-4 (%) [3, 4]: 1.1%
- Vomiting, Grade 0-2 (%) [3, 4]: 98.7%
- Vomiting, Grade 3-4 (%) [3, 4]: 0.9%

Molecule: bevacizumab: given with capecitabine in one QUASAR2 arm (7.5 mg/kg every three weeks)
- higher incidence of hypertension and proteinuria ([3]; QUASAR2, capecitabine plus bevacizumab arm versus capecitabine alone): ~10 fold

Reference: patent US20240352536A1, “Assay for Predicting Risk of Capecitabine-Induced Toxicity in a Subject” (Oxford University Innovation Ltd., priority 2021, published 2024)
